Reference: PubChem BioAssay (NCI)
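Five compound concentrations were applied to cells in 96-well plates for 48 hours; endpoints were derived by simple linear interpolation of the resulting dose-response curve. GI50 is the concentration that inhibits growth by half. TGI denotes the concentration required for complete inhibition of growth.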

Assays:
Test in all cases: NCI tumour cell line growth inhibition, 48 h
[1] = tested on: MOLT-4 leukemia
[2] = tested on: NCI-H460 lung
[3] = tested on: RPMI-8226 leukemia
[4] = tested on: SK-OV-3 ovarian
[5] = tested on: SN12C renal
[6] = tested on: SNB-19 CNS
[7] = tested on: SNB-75 CNS
[8] = tested on: HCT-15 colon
[9] = tested on: OVCAR-5 ovarian
[10] = tested on: SK-MEL-2 melanoma

Compound | TGI [1] [µM] | TGI [2] [µM] | TGI [3] [µM] | TGI [4] [µM] | TGI [5] [µM] | TGI [6] [µM] | TGI [7] [µM] | GI50 [8] [µM] | TGI [8] [µM] | GI50 [1] [µM] | GI50 [2] [µM] | GI50 [9] [µM] | TGI [9] [µM] | GI50 [3] [µM] | GI50 [4] [µM] | GI50 [5] [µM] | GI50 [6] [µM] | GI50 [7] [µM] | TGI [10] [µM] | GI50 [10] [µM]
O=[P+](O)c1cc2c3ccccc3ccc2c2ccccc12 | > 100 | > 100 | > 100 | > 100 | > 100 | > 100 | > 100 | – | – | – | – | – | – | – | – | – | – | – | – | –
COc1ccc(C2C3=C(COC3=O)N(CCO)c3cc4c(cc32)CCC4)cc1OC (stereo not given) | > 50 | > 29.5 | > 50 | > 50 | > 50 | > 50 | 2.48 | 1.65 | > 50 | 2.1 | 0.336 | 3.59 | > 50 | 2.64 | 0.746 | 3.41 | 2.16 | 0.253 | – | –
O=C(c1nc2ccccc2[nH]1)C1C(c2cccc([N+](=O)[O-])c2)C2CC3CCCCC3N2[C@@]12C(=O)Nc1cc(Cl)ccc12 (stereo not given in full) | 10.1 | – | 5.6 | – | 3.62 | 6.43 | 3.63 | – | – | 2.38 | – | 1.48 | 3.11 | 1.71 | – | 1.72 | 2.04 | 1.18 | – | –
COc1ccccc1NC(=O)NS(=O)(=O)c1ccccc1 | – | > 100 | – | – | > 100 | > 100 | > 100 | – | – | – | – | – | > 100 | – | – | – | – | – | > 100 | –
C=CCN1C(=O)C/C(=C2/CCC(=O)N2CC=C)C1=O | > 100 | > 100 | – | > 100 | > 100 | > 100 | > 100 | – | > 100 | – | – | – | > 100 | – | – | – | – | – | > 100 | –
CCN1CCN(c2nc(NNC(=O)c3cccc(OC)c3)nc(N3CCN(C(c4ccccc4)c4ccccc4)CC3)n2)CC1 | 4.72 | 3.39 | 4.4 | 7.08 | 3.36 | 26.3 | 7.71 | – | – | 2.03 | 1.75 | 2.83 | 9.97 | 1.84 | 2.72 | 1.62 | 4.63 | 0.201 | 4.05 | 2.02
NC(=S)c1cn(C2OC(CO)C(O)C2O)c2ncnc(N)c12 (stereo not given) | 0.261 | 8.15 | 0.448 | – | 12.5 | 13.7 | 1.84 | 0.191 | – | 0.0386 | 0.212 | 0.353 | – | 0.099 | – | 0.201 | 0.411 | 0.223 | 0.605 | 0.175
O=C1/C(=C/c2ccc(Cl)cc2)COc2ccc(Br)cc21 | > 100 | > 100 | 74.4 | > 100 | – | – | > 100 | – | – | – | – | – | > 100 | – | – | – | – | – | > 100 | –
Cc1ccc(S(=O)(=O)N/N=C/CN2C(=O)c3ccccc3C2=O)cc1 | > 100 | > 100 | > 100 | – | > 100 | > 100 | > 100 | – | > 100 | – | – | – | – | – | – | – | – | – | > 100 | –
Cc1nc(=O)n2c(c1C(=O)Nc1ccc(Cl)cc1)NCCC2 | > 100 | > 100 | > 100 | > 100 | > 100 | > 100 | – | – | > 100 | – | – | – | > 100 | – | – | – | – | – | > 100 | –
